Reference: publication PMC12775823, “Glucosylceramide regulates depression through activating peroxisome proliferator-activated receptor gamma in dorsal striatum” (Theranostics, 2026)

Tests used:
[1] = target: T1, human PPARγ-full length (Homo sapiens, UniProt P37231); test: Surface plasmon resonance, full-length hPPARγ; assay type: binding; conditions: SPR, steady-state affinity, 25 °C; read-out: equilibrium dissociation constant (KD) for hPPARγ
T1 construct: human PPARγ-full length (Active Motif, USA); purchased Active Motif
T1 sequence (P37231 1-505): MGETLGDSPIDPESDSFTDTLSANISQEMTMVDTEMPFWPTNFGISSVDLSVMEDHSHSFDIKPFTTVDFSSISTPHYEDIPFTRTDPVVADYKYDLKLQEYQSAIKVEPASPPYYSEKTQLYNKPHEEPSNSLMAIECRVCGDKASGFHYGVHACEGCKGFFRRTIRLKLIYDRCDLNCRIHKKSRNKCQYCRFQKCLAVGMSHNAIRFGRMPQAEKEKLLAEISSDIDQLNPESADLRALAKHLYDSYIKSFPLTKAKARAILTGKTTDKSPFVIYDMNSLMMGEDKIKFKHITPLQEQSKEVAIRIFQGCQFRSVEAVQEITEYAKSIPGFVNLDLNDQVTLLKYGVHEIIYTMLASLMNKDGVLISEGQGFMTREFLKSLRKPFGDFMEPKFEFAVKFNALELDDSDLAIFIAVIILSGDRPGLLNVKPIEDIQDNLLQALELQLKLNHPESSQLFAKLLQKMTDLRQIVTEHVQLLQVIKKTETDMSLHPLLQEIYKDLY
Description: Prepared human PPARγ-LBD and human PPARγ-full length (Active Motif, USA) were immobilized onto a CM5 sensor chip using amine coupling. Briefly, the protein was diluted to 50 μg/mL in immobilization buffer and covalently attached to the CM5 chip via an Amine Coupling Kit (Cytiva, USA), following the manufacturer's instructions. A channel without immobilized protein was used as a blank control. The positive control, pioglitazone, and the test molecule, GlcCer, were both diluted in running buffer (PBS containing 5% (v/v) DMSO, 3 mM EDTA, and 0.05% (v/v) surfactant P20, pH 7.4). Gradient concentrations of GlcCer were injected over both channels at a flow rate of 30 μL/min, with an association time and dissociation time of 85 s each.

[2] = target: T2, human PPARγ AF1 domain (Homo sapiens, UniProt P37231); test: Surface plasmon resonance, PPARγ AF1 domain; assay type: binding; conditions: SPR
T2 sequence (P37231 31-135 limits assumed): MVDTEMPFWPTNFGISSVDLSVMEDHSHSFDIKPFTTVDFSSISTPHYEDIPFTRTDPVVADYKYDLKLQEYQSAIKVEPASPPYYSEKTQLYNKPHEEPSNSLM

[3] = tested on: T3, PPARγ; test: Lipid-protein pull down assay, dorsal striatum lysate; assay type: binding; conditions: GlcCer-beads, dorsal striatum of mice
T3 construct: from tissue; host or cells: mouse dorsal striatum
Description: Dorsal striatal tissues were cut into small pieces and then centrifuged at 13,000 g for 15 min at 4 °C. Supernatants were collected, and protein concentrations were determined using BCA assay. GlcCer-beads were equilibrated by washing them three times with ice-cold PBS. The clarified cell lysate was added to the equilibrated beads, then the mixture was incubated on a rotator at 4 °C for overnight, use approximately 500 µg of total protein per reaction. After incubation, the beads were washed three times with ice-cold PBS. Following the final wash, the beads were resuspended in SDS-PAGE sample buffer and heat at 95°C for 5 min to elute the bound proteins. The eluted sample was used to western blotting analysis.

[4] = tested on: T4, PPARγ; test: PPARγ transcription activity assay (PPRE binding), N2a cells; assay type: cell-based
T4 construct: endogenous in cells; host or cells: N2a cells (nuclear extract)
Description: (§1) Nuclear extracts were prepared from N2a cells using a nuclear extraction kit according to the manufacturer protocol. The binding reaction between PPARγ and PPRE was carried out at 4°C for 16 h using 3 μg of nuclear extracts. The binding activity between PPARγ and PPRE was indicated by the change of optical density (OD) at 405 nm, and an enzyme reaction was measured by HRP-conjugated antibody in complex of PPRE/ PPARγ/antibody.

[5] = tested on: PPARγ target genes; test: qRT-PCR of PPARγ target genes in PPARγ-overexpressing N2a cells; assay type: cell-based; conditions: 0.1, 1 and 10 μM
[6] = tested on: T3, PPARγ; test: PPARγ mRNA, protein and transcriptional activity in dorsal striatum of CRS-induced mice; assay type: in vivo; conditions: intra-dorsal striatum pioglitazone, GlcCer or combination
Description: Dorsal striatal tissues were processed in accordance with the RNA isolation kit's instructions (RC102/RC112; Vazyme Biotech Co.,Ltd), mRNA was reverse transcribed using HiScript® III All-in-one RT SuperMix (Vazyme Biotech Co.,Ltd), and cDNA was amplified using SYBR Green (Vazyme Biotech Co.,Ltd). The 2^-ΔΔCt method was used to analyze gene expression, and the relative level of the target gene was normalized to Gapdh. The primer sequences can be found in Supplemental materials Table S1.
Brain tissues were cut into small pieces and then centrifuged at 13,000 g for 15 min at 4 °C. Supernatants were collected, and proteins concentrations were determined by BCA assay. Samples were denatured at 95 °C for 5 min and subsequently stored at -80 °C for further use. Protein samples were loaded onto 10% SDS-PAGE and transferred on PVDF membranes. After being blocked with 5% nonfat dry milk in Tris-buffered saline with 0.1% Tween-20 for 1.5 h, the PVDF membranes were incubated with corresponding primary antibodies overnight at 4 °C. Membranes were then incubated with HRP-conjugated secondary antibodies for 1 h at room temperature and measured with chemiluminescence imaging system (ChemiScope; Clinx, China).
as §1

[7] = tested on: D2-Pparg^f/f mice; test: Behavioral tests in D2-Pparg f/f mice after intra-dorsal striatal microinfusion; assay type: in vivo; conditions: microinfusion of GlcCer
Description: For intracranial injection, mice were surgically implanted with sterilized guide cannulae in dorsal striatum. Intra-dorsal striatal injection of PDMP (100 μM, 1 μL/injection), pioglitazone (100 μM, 1 μL/injection), UNC (10 μM, 1 μL/injection) was performed 30 min before behavioral test. Mice were intraperitoneally injected with CNO (1 mg/kg/d) before behavioral test.
Elevated plus maze test (EPMT).
Light-dark Transition test (LDT).
Sucrose preference test (SPT).
Forced swimming test (FST).

[8] = tested on: aged mice; conditions: oral administration, ref [35]; cited from earlier work

Substance: Glucosylceramide [GlcCer]
- Kd [1]: 36 ± 2 nM
- Kd [2]: 29 ± 3 nM
- interaction between PPARγ and GlcCer (lipid-protein binding assay) [3]: direct interaction
- PPARγ transcriptional (DNA binding) activity in N2a cells ([4]; Figure 5H, GlcCer, pioglitazone or combination): increased PPARγ transcriptional activity in a dose-dependent manner
- PPARγ transcriptional activity, nuclear extracts from N2a cells ([4]; pioglitazone (100 nM), GlcCer (10 μM), or their combination, Figure S7F): significantly increased
- expression of Adipoq and Leptin [5]: robustly upregulated
- expression of adipogenesis-related genes (Srebp-1c, Adrp, Fabp4, Fasn, Cd36) [5]: little or no effect
- PPARγ activity in the dorsal striatum [6]: significantly enhanced
- PPARγ mRNA or protein expression [6]: neither pioglitazone, GlcCer, nor their combination altered
- depression-like behaviors [7]: failed to alleviate
- neuroinflammation and memory deficits [8]: alleviate
